# Results from PMC9649909, “Wnt-pathway inhibitors with selective activity against triple-negative breast cancer: From thienopyrimidine to quinazoline inhibitors” (Frontiers in Pharmacology, 2022).
# Read-outs that look alike come from different tables or passages of the source.
# How the values were obtained:
# [1] = tested on: β-catenin-dependent Wnt-pathway; assay: TopFlash luciferase reporter assay, CHIR99021-stimulated, HCC1395; format: cell-based; details: for TopFlash activity in words: CHIR99021; for Emax: read-out: HCC1395 TopFlash Efficacy; for fold improvement in the activity compared to 4a: TopFlash IC50 vs 4a
# From the text: Both stimulations abolish formation of the destruction complex, a multiprotein complex consisting of Axin, adenomatous polyposis coli (APC), glycogen synthase kinase three beta (GSK3β), and casein kinase one alpha (CK1α). Upon inactivation of the complex, β-catenin accumulates in the cytoplasm and translocates into the nucleus where it interacts with transcription factors. These downstream events are quantified by a Luciferase transcription-based readout assay (TopFlash assay).
# [2] = in vitro; details: human
# Protocol: (§1) The simplicity of the scaffold combined with synthetic accessibility allows building a library of compounds and performing structure activity relationship (SAR) studies of the three main parts of the molecule: the top part, the linker and the core (Figure 2).
# (§2) The synthesized compounds were used to explore SAR of three defined areas of investigation (Figure 2). All compounds were tested in the HCC1395 TNBC cell line using the GSK3β inhibitor to induce β-catenin signaling since 4a acted downstream of GSK3β (Figure 2). Both inhibition of β-catenin signaling measured by the TopFlash reporter and cytotoxicity measured by the Renilla reporter were assessed.
# (§3) The Wnt3a or CHIR99021-stimulated luciferase activity in HCC1395 TNBC cell line stably transfected with the TopFlash reporter was analyzed essentially as described for the BT-20 TNBC cell line ([Shaw et al., 2019b]; [Koval et al., 2021]). Reporter cells were seeded at 10,000 cells/well in a white opaque 384-well plate in the final volume of 20 μl of DMEM medium supplemented with 10% FCS. The cells were maintained incubated at 37°C, 5% CO2 overnight for attachment. Subsequently, they were transfected by a plasmid encoding constitutively expressed Renilla luciferase under the CMV promoter overall as described in the manufacturer’s protocol using 12 μg/ml of DNA and 40 μl/ml XtremeGENE nine reagent. The next day, the medium in each well was replaced with a 10 μl of fresh medium containing compound of interest, and, after 1 h of preincubation with the compounds, additional 10 μl of medium supplemented with Wnt3a [purified as described ([Willert et al., 2003]; [Koval and Katanaev, 2011])] or CHIR99021 were added creating respective final concentrations of 2.5 μg/ml or 5 μM of each. In case of other signal transduction reporters, no additional stimulation was performed. Compound dilutions were prepared by serial dilution in DMSO and diluted with the amount of medium necessary to obtain their final concentrations indicated on the figures and tables and maintain concentration of DMSO of 0.5% in all assay points. After overnight incubation, the supernatant in each well was removed, and the luciferase activity was measured as described ([Dyer et al., 2000]; [Huber et al., 2021]; [Pellissier et al., 2021]). The culture medium was completely removed from all wells of the plate. Finally, the luciferase activity of the firefly and Renilla luciferases was detected sequentially in individual wells of a 384-well plate through injection of corresponding measurement solutions and immediate reading (400 ms integration time) in Infinite M Plex multifunctional plate reader with injection module.
# [3] = tested on: HCC1395 cells; assay: in vitro
# Protocol: as §1, §2, §3
# [4] = tested on: BT-20 TNBC cell line; assay: MTT survival assay BT-20; format: cell-based
# Protocol: (§4) Indicated TNBC cell lines were detached and resuspended at 120,000 cells/ml and added into each well of a transparent 384-well plate in the final volume of 20 µl/well. The cells were maintained in DMEM containing 10% FBS at 37°C, 5% CO2 overnight. Next day, the medium in each well was replaced by 40 μl of the fresh one containing the indicated concentrations of compounds. In case of drug combination experiments, each compound dilution was delivered in corresponding well in 20 μl of medium. […] After incubation for 3–4 days, depending on the cell line, the medium in each well was replaced by 25 μl of 0.5 mg/ml Thiazolyl blue solution in 1xPBS following by incubation for 3 h at 37°C. Then the solution was removed and 25 μl DMSO was added into each well. Absorbance at 510 nm was measured in a Tecan Infinite M200 PRO plate reader.
# [5] = tested on: HCC1395 TNBC cell line; assay: MTT survival assay HCC1395; format: cell-based
# Protocol: as §4
# [6] = tested on: MDA-MB-231 TNBC cell line; assay: MTT survival assay MDA-MB-231; format: cell-based
# Protocol: as §4
# [7] = tested on: HCC1806 TNBC cell line; assay: MTT survival assay HCC1806; format: cell-based
# Protocol: as §4
# [8] = tested on: MDA-MB-468 TNBC cell line; assay: MTT survival assay MDA-MB-468; format: cell-based; details: Table S2
# Protocol: as §4
# [9] = tested on: non-cancerous breast epithelial cell line MCF10a; assay: MTT survival assay MCF10a; format: cell-based; details: for selectivity over the control cells (difference in IC50, MCF10a vs HCC1395): MTT IC50 ratio MCF10a / HCC1395
# Protocol: as §4
# [10] = Homo sapiens, HCC1395, HCC1395, stimulation with CHIR99021 (GSK3β inhibitor), read-out: HCC1395 TopFlash IC50
# [11] = Homo sapiens, BT-20, Table S2, read-out: MTT BT-20 IC50
# [12] = Homo sapiens, MDA-MB-231, Figure 3B heatmap, read-out: IC50, μM (MDA-MB-231)
# [13] = Homo sapiens, MDA-MB-231, Table S2, read-out: MTT MDA-MB-231 IC50
# [14] = Homo sapiens, HCC1806, Table S2, read-out: MTT HCC1806 IC50
# [15] = Homo sapiens, MCF-10A, Figure 3B heatmap, read-out: IC50, μM (MCF10)
# [16] = Homo sapiens, MCF-10A, Table S2, read-out: MTT MCF10 IC50
# [17] = Homo sapiens, HCC1395, HCC1395, stimulation with CHIR99021 (GSK3β inhibitor)
# [18] = Homo sapiens, HCC1395, Table S2, read-out: MTT HCC-1395 IC50
# [19] = HCC1395, stimulation with CHIR99021 (GSK3β inhibitor)
"IC50 [1, 10] [µM]",Compound,IC50 ([2]; HCC1395 Cytotoxicity IC50) [µM],GSK HCC1395 Renilla Comments [3],"IC50 [4, 11] [µM]","IC50 [6, 12] [µM]","IC50 [6, 13] [µM]","IC50 [7, 14] [µM]","IC50 ([8]; Homo sapiens, MDA-MB-468) [µM]","IC50 [9, 16] [µM]","Emax [1, 17] [%]","IC50 [5, 18] [µM]",MTT MDA-MB-231 plateau ([6]; Table S2),further results
> 50,"c1ccc(CCCNc2ncnc3sccc23)cc1 [Compound 5h, N-(3-phenylpropyl)thieno[2,3-d]pyrimidin-4-amine]",> 50,Non-toxic,36.8,> 10,> 50,37.1,> 50,> 50,,,,"TopFlash activity in words ([1]; HCC1395): inactive; IC50 ([4]; Homo sapiens, BT-20, Figure 3B heatmap, no activity up to maximal tested concentration, read-out: IC50, μM (BT20)): > 50 µM; IC50 ([5]; Homo sapiens, HCC1395, MTT, Figure 3B heatmap and text, read-out: IC50, μM (HCC1395)): > 50 µM; IC50 ([7]; Homo sapiens, HCC1806, Figure 3B heatmap, read-out: IC50, μM (HCC1806)): > 10 µM; IC50 [9, 15]: > 10 µM; selectivity over the control cells (difference in IC50, MCF10a vs HCC1395) [9]: less than 3 fold"
4.96 ± 1.65,"COc1cccc(CNc2ncnc3sccc23)c1 [Compound 4c, N-(3-methoxybenzyl)thieno[2,3-d]pyrimidin-4-amine]",> 50,Non-toxic,2.89,> 10,9.37,> 50,1.61,> 50,58.6 ± 22.8,1.08,100,IC50 ([3]; human): > 100 µM; MTT HCC1806 Comments ([7]; Table S2): Inactive; MTT MCF10 Comments ([9]; Table S2): Inactive
4.61 ± 1.91,"Cc1ccc(CNc2ncnc3sccc23)cc1 [Compound 4o, N-(4-methylbenzyl)thieno[2,3-d]pyrimidin-4-amine]",> 50,,2.85,,> 10,2.71,1.02,6.18,72.7 ± 19.5,1.35,,fold improvement in the activity compared to 4a [1]: 2 fold; MTT MDA-MB-231 Comments ([6]; Table S2): Inactive
2.04 ± 2.55,"CN(CCc1ccccc1)c1ncnc2sccc12 [Compound 5j, N-methyl-N-phenethylthieno[2,3-d]pyrimidin-4-amine]",> 50,,1.63,,4.71,17.2,0.92,1.53,100,2.07,92.68,"HCC1395 TopFlash Efficacy [1, 19]: 100 ± 0%; selectivity over the control cells (difference in IC50, MCF10a vs HCC1395) [9]: less than 3 fold"
,"Clc1ccc(CNc2ncnc3ccccc23)cc1 [Compound 9e, N-(4-chloro)quinazolin-4-amine]",,,9.6,,26.9,11.4,2.22,> 10,,0.92,100,"Emax ([1]; Homo sapiens, HCC1395, stimulation with CHIR99021 (GSK3β inhibitor)): 96 ± 5.7%; IC50 ([1]; Homo sapiens, HCC1395, stimulation with CHIR99021 (GSK3β inhibitor), read-out: HCC1395 TopFlash IC50): 2.18 ± 0.85 µM; IC50 [2]: > 50 µM; IC50 ([6]; Homo sapiens, MDA-MB-231, read-out: IC50, μM (MDA-MB-231)): > 10 µM"
2.79 ± 0.67,"COc1ccccc1CNc1ncnc2sccc12 [Compound 4b, N-(2-methoxybenzyl)thieno[2,3-d]pyrimidin-4-amine]",> 50,,> 50,> 10,> 50,> 50,11.8,33.2,40.7,8.17,,"HCC1395 TopFlash Efficacy [1, 19]: 40.7 ± 3.1%; fold improvement in the activity compared to 4a [1]: 3 fold; MTT HCC1806 Comments ([7]; Table S2): Inactive; IC50 [9, 15]: > 10 µM"
8.4 ± 5.01,"Clc1cccc(CNc2ncnc3sccc23)c1 [Compound 4i, N-(3-chlorobenzyl)thieno[2,3-d]pyrimidin-4-amine]",> 50,Non-toxic,5.24,,18.7,2.2,1.44,> 10,56.2 ± 4,1.74,100,MTT MCF10 Comments ([9]; Table S2): Inactive
2.64 ± 1.22,"c1ccc(CCNc2ncnc3sccc23)cc1 [Compound 5g, N-phenethylthieno[2,3-d]pyrimidin-4-amine]",> 50,Non-toxic,> 50,> 10,> 50,> 50,> 50,> 50,89,4.59,,"IC50 [9, 15]: > 10 µM"
3.19 ± 1.64,"Clc1ccc(CNc2ncnc3sccc23)cc1 [Compound 4j, N-(4-chlorobenzyl)thieno[2,3-d]pyrimidin-4-amine]",> 50,,6.29,,45.3,26.2,3.93,20.4,74.6 ± 12,1.42,92.63,fold improvement in the activity compared to 4a [1]: 2 fold
,2-chloro-N-(2-methoxybenzyl)quinazolin-4-amine [Compound 8a],,,,,,,,,,,53.88,"TopFlash activity in words ([1]; HCC1395): no longer active; GSK HCC1395 plateau ([1]; Table S2): 100; IC50 ([1]; Table S2, TopFlash, GSK3β inhibitor stimulation, read-out: GSK HCC1395 IC50): 42.8 µM; IC50 ([3]; read-out: HCC1395 Cytotoxicity IC50, Renilla luciferase, HCC1395): > 100 µM; MTT BT-20 plateau ([4]; Table S2): 100; IC50 ([4]; Table S2, read-out: MTT BT-20 IC50): 2.96 µM; MTT HCC1395 plateau ([5]; Table S2): 100; IC50 ([5]; Table S2, read-out: MTT HCC-1395 IC50): 7.83 µM; IC50 ([6]; Table S2, read-out: MTT MDA-MB-231 IC50): 2.65 µM; MTT HCC1806 plateau ([7]; Table S2): 100; IC50 ([7]; Table S2, read-out: MTT HCC1806 IC50): 22.7 µM; IC50 [8]: 3.19 µM; MTT MDA-MB-468 plateau [8]: 69.23; selectivity over the control cells (difference in IC50, MCF10a vs HCC1395) [9]: less than 3 fold; MTT MCF10 plateau ([9]; Table S2): 100; IC50 ([9]; Table S2, read-out: MTT MCF10 IC50): 10.5 µM"

Compound,"IC50 [1, 10] [µM]",IC50 ([2]; HCC1395 Cytotoxicity IC50) [µM],GSK HCC1395 Renilla Comments [3],"IC50 [4, 11] [µM]","IC50 [6, 12] [µM]","IC50 [6, 13] [µM]","IC50 [7, 14] [µM]","IC50 ([8]; Homo sapiens, MDA-MB-468) [µM]","IC50 [9, 16] [µM]","Emax [1, 17] [%]","IC50 [5, 18] [µM]",MTT MDA-MB-231 plateau ([6]; Table S2),further results
"COc1ccc(CNc2ncnc3ccccc23)cc1 [Compound 9c, N-(4-methoxybenzyl)quinazolin-4-amine]",4.76 ± 0.23,,,3.81,,> 10,> 10,0.44,7.94,81.5,1.17,,"HCC1395 TopFlash Efficacy [1, 19]: 81.5 ± 10.61%; IC50 [2]: > 50 µM; MTT MDA-MB-231 Comments ([6]; Table S2): Inactive; MTT HCC1806 Comments ([7]; Table S2): Inactive"
